Bridge positions count the residues as written; N and C are the ends. Ends that are not written are not given here.
Tested on: patients with chronic idiopathic constipation (CIC)
Assay: Second phase 3 CIC trial: change from baseline in CSBMs/week
Format: in vivo, human
Conditions: MRA
[1] = Week 3, 6 mg, ITT Population-Excluding Duplicate Patients
[2] = Week 4, 3 mg, ITT Population-Excluding Duplicate Patients
[3] = Week 4, 6 mg, ITT Population-Excluding Duplicate Patients
[4] = Week 5, 3 mg, ITT Population-Excluding Duplicate Patients
[5] = Week 5, 6 mg, ITT Population-Excluding Duplicate Patients
[6] = Week 6, 3 mg, ITT Population-Excluding Duplicate Patients
[7] = Week 6, 6 mg, ITT Population-Excluding Duplicate Patients
[8] = Week 7, 3 mg, ITT Population-Excluding Duplicate Patients
[9] = Week 7, 6 mg, ITT Population-Excluding Duplicate Patients
[10] = Week 8, 3 mg, ITT Population-Excluding Duplicate Patients

## Asn^1-Asp^2-Glu^3-Cys^4-Glu^5-Leu^6-Cys^7-Val^8-Asn^9-Val^10-Ala^11-Cys^12-Thr^13-Gly^14-Cys^15-Leu^16 (NDECELCVNVACTGCL; disulfide 4-12, 7-15) [Plecanatide, uroguanylin analogue, guanylate cyclase-C agonist; (C4:C12, C7:C15) bicycle peptide]
Week 3, 6 mg, ITT Population
  Change from Baseline in CSBMs, Mean (SD): 1.82 (2.949) CSBMs/week
[1]
  Change from Baseline in CSBMs, Difference from Placebo: 0.61 CSBMs/week
  Change from Baseline in CSBMs, LS Mean (SE): 1.83 (0.154) CSBMs/week
  Change from Baseline in CSBMs, Mean (SD): 1.83 (2.958) CSBMs/week
Week 3, Active Combined, ITT Population-Excluding Duplicate Patients
  Change from Baseline in CSBMs, Mean (SD): 1.89 (3.049) CSBMs/week
Week 3, Active Combined, ITT Population
  Change from Baseline in CSBMs, Mean (SD): 1.88 (3.032) CSBMs/week
Week 4, 3 mg, ITT Population
  Change from Baseline in CSBMs, Difference from Placebo: 0.91 CSBMs/week
  Change from Baseline in CSBMs, LS Mean (SE): 2.16 (0.153) CSBMs/week
  Change from Baseline in CSBMs, Mean (SD): 2.19 (3.395) CSBMs/week
[2]
  Change from Baseline in CSBMs, Difference from Placebo: 0.92 CSBMs/week
  Change from Baseline in CSBMs, LS Mean (SE): 2.20 (0.156) CSBMs/week
  Change from Baseline in CSBMs, Mean (SD): 2.22 (3.418) CSBMs/week
Week 4, 6 mg, ITT Population
  Change from Baseline in CSBMs, Difference from Placebo: 0.75 CSBMs/week
  Change from Baseline in CSBMs, LS Mean (SE): 2.00 (0.152) CSBMs/week
  Change from Baseline in CSBMs, Mean (SD): 2.03 (3.243) CSBMs/week
[3]
  Change from Baseline in CSBMs, Difference from Placebo: 0.75 CSBMs/week
  Change from Baseline in CSBMs, LS Mean (SE): 2.02 (0.154) CSBMs/week
  Change from Baseline in CSBMs, Mean (SD): 2.03 (3.254) CSBMs/week
Week 4, Active Combined, ITT Population-Excluding Duplicate Patients
  Change from Baseline in CSBMs, Mean (SD): 2.13 (3.335) CSBMs/week
Week 4, Active Combined, ITT Population
  Change from Baseline in CSBMs, Mean (SD): 2.11 (3.318) CSBMs/week
Week 5, 3 mg, ITT Population
  Change from Baseline in CSBMs, Difference from Placebo: 0.84 CSBMs/week
  Change from Baseline in CSBMs, LS Mean (SE): 2.31 (0.154) CSBMs/week
  Change from Baseline in CSBMs, Mean (SD): 2.39 (3.375) CSBMs/week
[4]
  Change from Baseline in CSBMs, Difference from Placebo: 0.85 CSBMs/week
  Change from Baseline in CSBMs, LS Mean (SE): 2.35 (0.157) CSBMs/week
  Change from Baseline in CSBMs, Mean (SD): 2.43 (3.395) CSBMs/week
Week 5, 6 mg, ITT Population
  Change from Baseline in CSBMs, Difference from Placebo: 0.48 CSBMs/week
  Change from Baseline in CSBMs, LS Mean (SE): 1.95 (0.153) CSBMs/week
  Change from Baseline in CSBMs, Mean (SD): 1.99 (3.019) CSBMs/week
[5]
  Change from Baseline in CSBMs, Difference from Placebo: 0.46 CSBMs/week
  Change from Baseline in CSBMs, LS Mean (SE): 1.97 (0.154) CSBMs/week
  Change from Baseline in CSBMs, Mean (SD): 1.99 (3.025) CSBMs/week
Week 5, Active Combined, ITT Population-Excluding Duplicate Patients
  Change from Baseline in CSBMs, Mean (SD): 2.20 (3.216) CSBMs/week
Week 5, Active Combined, ITT Population
  Change from Baseline in CSBMs, Mean (SD): 2.18 (3.202) CSBMs/week
Week 6, 3 mg, ITT Population
  Change from Baseline in CSBMs, Difference from Placebo: 1.01 CSBMs/week
  Change from Baseline in CSBMs, LS Mean (SE): 2.32 (0.155) CSBMs/week
  Change from Baseline in CSBMs, Mean (SD): 2.43 (3.548) CSBMs/week
[6]
  Change from Baseline in CSBMs, Difference from Placebo: 1.01 CSBMs/week
  Change from Baseline in CSBMs, LS Mean (SE): 2.35 (0.158) CSBMs/week
  Change from Baseline in CSBMs, Mean (SD): 2.45 (3.571) CSBMs/week
Week 6, 6 mg, ITT Population
  Change from Baseline in CSBMs, Difference from Placebo: 0.92 CSBMs/week
  Change from Baseline in CSBMs, LS Mean (SE): 2.24 (0.153) CSBMs/week
  Change from Baseline in CSBMs, Mean (SD): 2.29 (3.384) CSBMs/week
[7]
  Change from Baseline in CSBMs, Difference from Placebo: 0.93 CSBMs/week
  Change from Baseline in CSBMs, LS Mean (SE): 2.27 (0.155) CSBMs/week
  Change from Baseline in CSBMs, Mean (SD): 2.31 (3.391) CSBMs/week
Week 6, Active Combined, ITT Population-Excluding Duplicate Patients
  Change from Baseline in CSBMs, Mean (SD): 2.38 (3.478) CSBMs/week
Week 6, Active Combined, ITT Population
  Change from Baseline in CSBMs, Mean (SD): 2.36 (3.464) CSBMs/week
Week 7, 3 mg, ITT Population
  Change from Baseline in CSBMs, Difference from Placebo: 0.81 CSBMs/week
  Change from Baseline in CSBMs, LS Mean (SE): 2.29 (0.155) CSBMs/week
  Change from Baseline in CSBMs, Mean (SD): 2.40 (3.413) CSBMs/week
[8]
  Change from Baseline in CSBMs, Difference from Placebo: 0.83 CSBMs/week
  Change from Baseline in CSBMs, LS Mean (SE): 2.33 (0.158) CSBMs/week
  Change from Baseline in CSBMs, Mean (SD): 2.44 (3.435) CSBMs/week
Week 7, 6 mg, ITT Population
  Change from Baseline in CSBMs, Difference from Placebo: 0.82 CSBMs/week
  Change from Baseline in CSBMs, LS Mean (SE): 2.31 (0.154) CSBMs/week
  Change from Baseline in CSBMs, Mean (SD): 2.38 (3.361) CSBMs/week
[9]
  Change from Baseline in CSBMs, Difference from Placebo: 0.83 CSBMs/week
  Change from Baseline in CSBMs, LS Mean (SE): 2.34 (0.155) CSBMs/week
  Change from Baseline in CSBMs, Mean (SD): 2.40 (3.369) CSBMs/week
Week 7, Active Combined, ITT Population-Excluding Duplicate Patients
  Change from Baseline in CSBMs, Mean (SD): 2.42 (3.399) CSBMs/week
Week 7, Active Combined, ITT Population
  Change from Baseline in CSBMs, Mean (SD): 2.39 (3.384) CSBMs/week
Week 8, 3 mg, ITT Population
  Change from Baseline in CSBMs, Difference from Placebo: 1.01 CSBMs/week
  Change from Baseline in CSBMs, LS Mean (SE): 2.52 (0.156) CSBMs/week
  Change from Baseline in CSBMs, Mean (SD): 2.67 (3.747) CSBMs/week
[10]
  Change from Baseline in CSBMs, Difference from Placebo: 1.06 CSBMs/week
  Change from Baseline in CSBMs, LS Mean (SE): 2.56 (0.158) CSBMs/week
  Change from Baseline in CSBMs, Mean (SD): 2.68 (3.765) CSBMs/week
Week 8, 6 mg, ITT Population
  Change from Baseline in CSBMs, Difference from Placebo: 0.82 CSBMs/week
  Change from Baseline in CSBMs, LS Mean (SE): 2.33 (0.154) CSBMs/week

From US20160367623A1, “AGONISTS OF GUANYLATE CYCLASE USEFUL FOR THE TREATMENT OF GASTROINTESTINAL DISORDERS, INFLAMMATION, CANCER AND OTHER DISORDERS” (priority 2015, published 2016)
